From patent publication US9636311B2, “N,N′-di-1 naphthylguanidine HCl (NAGH) and N,N′-di-p-nitrophenylguanidine HCl (NAD) treatment for stroke at delayed timepoints” (University of South Florida, priority 2012, dated 2017)

Tests used:
Type in all cases: in vivo, rat
rats following MCAO [1] = assay: Spontaneous activity (automated activity monitor) after MCAO; conditions: 1 month post MCAO
Experimental: (§1) MCAO surgeries were performed as described elsewhere (Vendrame M, Cassady C J, Newcomb J, Butler T, Pennypacker K R, Zigova T, et al. Stroke. 2004; 35:2390-2395). Briefly, rats were anesthetized with isoflurane, and the right common carotid and external carotid arteries were exposed using blunt dissection techniques. The vagus nerve was separated from common carotid artery and the external carotid artery was ligated proximally, and transected near the bifurcation. An embolus 40 mm in length (4.0 siliconized monofilament) was inserted into the external carotid artery and fed distally into the origin of the middle cerebral artery (˜25 mm from insertion) through the internal carotid artery. Blood samples were taken and analyzed using an i-STAT handheld analyzer for hemoglobin, hematocrit, ionized calcium, glucose, sodium, potassium, pH, pCO2, HCO3, TCO2, base excess, pO2, and O2. Cerebral blood flow was recorded using a Laser Doppler Monitor (Moor Instruments) to verify occlusion. Afterwards, the embolus was ligated permanently into the vessel and the neck incision was closed. Animals were treated with Ketoprofen IM (10 mg/kg) for three days post-surgery.
(§2) For the NAGH studies, vehicle or NAGH were prepared fresh each day. Daily subcutaneous injections (s.c) were administered beginning about 24 hours after MCAO and continued daily to about 72 hours post-surgery (FIG. 1). Animals received a total of 3 injections. A total of 84 animals were randomly assigned into 2 groups: Rats treated with vehicle (40% DMSO in sterile saline, n=42), or rats treated with 0.86 mg/kg NAGH (n=42).
For NAD testing, a total of 32 animals were randomly assigned into 2 groups: Vehicle (n=16), and rat treated with 2.8 mg/kg NAD (n=16). Vehicle consisted of 40% DMSO in sterile saline.
Spontaneous Activity was measured during both the day (1 hr) and night (12 hrs) using an automated activity monitor (VersaMax, Accuscan Instruments, Inc). Spontaneous Activity was measured prior to stroke to establish the normal baseline for each individual animal as well as 1 month after the MCAO. The animals were placed in a Plexiglas box and allowed to roam freely. There is a three dimensional infrared array in this box and when a beam is broken, activity is recorded. A total of sixteen parameters were measured including: Vertical movement, Horizontal movement, and Stereotypic activity were selected for analysis: Horizontal activity (HA), Total distance travelled (TD), Number of movements (MVN), Movement time (MVT), Vertical activity (VA), Number of vertical movements (VMN), vertical time (VT), Stereotype counts (SC), Number of Stereotypy (SN), Stereotypy time (ST), Clockwise rotation (CR), counterclockwise rotation (CCR), Margin distance (MD), Marginal time (MT), Center distance (CD), and Center time (CT). The data are presented as mean+SEM of percent of baseline behavior.

rats following MCAO [2] = assay: White matter injury, Luxol Fast Blue staining after MCAO; conditions: 30 days post-stroke
Experimental: as §1, §2
To evaluate white matter injury, coronal brain sections from each the animals were stained with Luxol Fast Blue (LFB; Sigma-Aldrich). For Luxol Fast Blue (LFB) staining, slides were dehydrated in 95% ethanol and incubated in LFB solution at 56° C. overnight. The following day slides were rinsed in 95% ethanol and distilled water and differentiated in 0.1% lithium carbonate solution for 20 s followed by 70% ethyl alcohol for 30 s, and finally rinsed in distilled water. After complete gray and white matter differentiation, slides were dehydrated and placed under coverslips with DPX. The quantitative analysis for demyelination in LFB staining section was performed as described previously with some modification (Virgili, Espinosa-Parrilla et al. 2011; Yu, Gong et al. 2012). LFB stained area was measured on the randomly selected sections (n=21-23 animals/group) to assess demyelination. The extent of the LFB positive area was quantified using a pixel grayscale approach in ImageJ software (National Institute of Health, USA). […] Once calibrated, the amount of LFB staining was measured as the percentage of hemispheric area using ImageJ software.

rats following MCAO [3] = assay: Brain infarction quantification (Nissl thionin) after MCAO; conditions: s.c. daily for 3 days from 24 h post-MCAO (NAGH 0.86 mg/kg, NAD 2.8 mg/kg); 30 days post MCAO; mean±SEM
Experimental: All animal procedures were performed according to the University of South Florida guidelines for the care and use of animals and protocols were reviewed and approved by the Institutional Animal Care and Use Committee and adhered to the NIH guidelines for the care and use of animals. Adult male Sprague Dawley rats (Harlan) weighing about 250-300 g at the time of surgery were used for the study. All animals were housed two per cage in a temperature controlled room, under a 12 hour light-dark cycle, and given access to water and food ad libitum. Animals were monitored daily for wellness and biweekly for weight loss. For the NAGH studies, a total of 84 animals were randomly assigned to 2 groups: MCAO only (n=42) and rat treated with NAGH (n=42) beginning 24 hour after MCAO.
as §1, §2
For the studies with other compounds based on the structure of DTG, twenty-four hours after MCAO, the rats began a sigma agonist treatment regimen. Vehicle or drug was prepared fresh each day. […]
Infarct size was determined by Nissl thionin staining. […]

`Cl.N=C(Nc1cccc2ccccc12)Nc1cccc2ccccc12` [NAGH, N,N′-di-1-Naphthylguanidine hydrochloride] was tested, and the “Daytime horizontal activities vs DMSO” value (rats following MCAO [1]; 1-hr test) was “no significant differences”, the “Daytime vertical time (VT) vs DMSO” value (rats following MCAO [1]; 1-hr test, p=0.01) was “significantly less active” and the “Daytime vertical activity (VA) vs DMSO” value (rats following MCAO [1]; 1-hr test, p=0.03) was “significantly less active”. The “Daytime number of vertical movements (VMN) vs DMSO” value (rats following MCAO [1]; 1-hr test, p=0.15) was “more active than DMSO group”, the “Daytime stereotypy activity (SC, SN, ST) decrease vs DMSO” value (rats following MCAO [1]; 1-hr test, p>0.05) was “failed to reach a statistically significant level” and the “Nighttime horizontal parameters decrease vs DMSO” value (rats following MCAO [1]; 12-hr test) was “did not reach statistical significance”. For the same molecule, the “Nighttime stereotypic behavior (SC, SN, ST) vs DMSO” value (rats following MCAO [1]; 12-hr test) was “did not show any significant difference”, the “Nighttime vertical activity (VA) vs DMSO” value (rats following MCAO [1]; 12-hr test, p=0.01) was “significantly less active” and the “Nighttime number of vertical movements (VMN) vs DMSO” value (rats following MCAO [1]; 12-hr test, p=0.015) was “significantly more active”. For the same molecule, the “Nighttime vertical time (VT) vs DMSO” value (rats following MCAO [1]; 12-hr test, p=0.03) was “significantly less active”, the “White matter tracts (LFB) vs DMSO” value (rats following MCAO [2]) was “white matter tracts were more intact” and the “Percent change in LFB staining from contralateral to ipsilateral hemisphere” value (rats following MCAO [2]; p<0.05 vs DMSO) was −0.73+7.7%. For the same molecule, the “LFB staining, ischemic hemisphere (percentage of hemispheric area)” value (rats following MCAO [2]; NAGH 0.86 mg/kg s.c. x3, n=22) was 10.32±0.48%, the “LFB staining, non-ischemic hemisphere (percentage of hemispheric area)” value (rats following MCAO [2]; NAGH 0.86 mg/kg s.c. x3, n=22) was 9.81±0.38% and the “Infarct volume (percent of hemisphere)” value (rats following MCAO [3]) was 13.58±2.3%.
